One assay deals with NZOV9. As to the kind of experiment: Cellular growth inhibition (3H-thymidine), NZOV9. It counts as cell-based. The note with it: Homo sapiens, five days, 3H-thymidine incorporation, maximum 20 μM. The procedure: (§1) The compounds were evaluated against two early passage human cell lines NZB5 and NZOV9, whose development and culture have been described [Marshall et al, Oncol. Res. 2004, 14, 297]. The cells were grown in ITS medium (α-modified minimal essential medium supplemented insulin, transferrin, selenite and 5% fetal bovine serum) and grown on 96-well tissue culture plates under an atmosphere of 5% O2, 5% CO2 and 90% N2. Individual wells contained 500-1000 cells (depending on the growth rate) in a volume of 150 μL. Compounds were added at 10-fold concentration steps to a maximum of 20 μM and plates were incubated for five days, with ^3H-thymidine being added over the last 6 h. Cells were harvested and incorporated radioactivity measured. Duplicate samples were analyzed for each compound dose with multiple control samples. Data were fitted by a least-squares method to an exponential of the form y=y0+ae^−bx, where y is the radioactivity (corrected for background and normalized to 100% of the control) x is the radiation dose, and y0, a and b are variables, and the IC50 value defined as the compound concentration reducing ^3H-thymidine levels by 50%.

A further assay concerns the target p110δ/p85 (Homo sapiens, UniProt O00329). As to the kind of experiment: Inhibition of isolated enzyme, PI 3-kinase p110δ/p85. The note with it: recombinant enzyme, 100 μM ATP, average of two experiments. The format is biochemical. How it is done: (§2) Compounds were evaluated for their ability to inhibit the Class I PI 3-kinase enzymes p110δ/p85, p110α/p85 and p110β/p85. Reaction mixtures comprising 0.1 μg of recombinant enzyme, 10 μg of L-α-phosphatidylinositol, the compound (DMSO only or DMSO+compound to a final concentration of 1%), 2× Lipid Kinase Buffer (40 mM Tris-HCl pH 7.4, 200 mM NaCl, 1 mM EDTA) were activated by the addition of an ATP mix (5 mM MgCl2, 100 μM ATP, 0.1 μL [γ^33P]ATP). […] Firstly, 200 μL of chloroform/methanol (1:1) was added, the biphasic reactions mixed and centrifuged briefly, and the inorganic phase was removed and discarded.

Another assay addresses p110α/p85 (Homo sapiens, UniProt P42336). Put plainly: Inhibition of isolated enzyme, PI 3-kinase p110α/p85.
Another assay relates to NZB5. Put plainly: Cellular growth inhibition (3H-thymidine), NZB5. The format is cell-based. The note with it: Homo sapiens, five days, 3H-thymidine incorporation, maximum 20 μM. The procedure: as §1
Another assay has as its target p110β/p85 (Homo sapiens, UniProt P42338). Put plainly: Inhibition of isolated enzyme, PI 3-kinase p110β/p85. It counts as biochemical. The note with it: recombinant enzyme, 100 μM ATP, average of two experiments. How it is done: as §2
Where [1] appears, read: read-out: IC50 (nM) p110α, recombinant enzyme, 100 μM ATP, average of two experiments.

SMILES strings stand for the structures. Structures can show the parent of a compound that is named as a salt. Where two headings read alike, the source gives them in different places. A value given as a limit tells only on which side of the number the result lay.

Chain of p110α/p85 (P42336 whole entry, species assumed): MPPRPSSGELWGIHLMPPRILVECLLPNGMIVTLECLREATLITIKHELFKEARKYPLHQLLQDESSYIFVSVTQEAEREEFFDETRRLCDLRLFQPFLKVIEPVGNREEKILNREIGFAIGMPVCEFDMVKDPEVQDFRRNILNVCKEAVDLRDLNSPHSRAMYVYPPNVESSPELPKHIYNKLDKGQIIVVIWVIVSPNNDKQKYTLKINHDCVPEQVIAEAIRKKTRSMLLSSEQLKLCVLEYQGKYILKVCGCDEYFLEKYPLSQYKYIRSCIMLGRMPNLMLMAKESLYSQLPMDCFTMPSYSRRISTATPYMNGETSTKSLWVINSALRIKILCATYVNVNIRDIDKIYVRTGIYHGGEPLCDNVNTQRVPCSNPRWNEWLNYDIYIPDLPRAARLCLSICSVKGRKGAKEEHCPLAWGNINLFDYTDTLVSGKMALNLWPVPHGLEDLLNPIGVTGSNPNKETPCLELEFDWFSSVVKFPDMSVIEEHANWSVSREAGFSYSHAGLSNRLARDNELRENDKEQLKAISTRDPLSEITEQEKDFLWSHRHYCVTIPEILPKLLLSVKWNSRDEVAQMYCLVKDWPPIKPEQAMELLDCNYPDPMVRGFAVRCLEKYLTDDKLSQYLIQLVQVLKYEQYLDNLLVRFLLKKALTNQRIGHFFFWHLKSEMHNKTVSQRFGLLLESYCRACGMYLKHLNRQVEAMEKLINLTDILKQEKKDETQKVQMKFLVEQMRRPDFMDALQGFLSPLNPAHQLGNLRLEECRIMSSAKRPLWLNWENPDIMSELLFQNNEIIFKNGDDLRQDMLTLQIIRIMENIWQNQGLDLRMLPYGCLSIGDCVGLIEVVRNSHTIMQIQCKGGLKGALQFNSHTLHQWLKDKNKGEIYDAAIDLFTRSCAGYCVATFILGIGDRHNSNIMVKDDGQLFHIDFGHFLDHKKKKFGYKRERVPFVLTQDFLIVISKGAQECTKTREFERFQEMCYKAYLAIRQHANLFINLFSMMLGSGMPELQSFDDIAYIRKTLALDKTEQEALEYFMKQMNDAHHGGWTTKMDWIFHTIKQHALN
Chain of p110α/p85 (P27986 whole entry partner, species assumed): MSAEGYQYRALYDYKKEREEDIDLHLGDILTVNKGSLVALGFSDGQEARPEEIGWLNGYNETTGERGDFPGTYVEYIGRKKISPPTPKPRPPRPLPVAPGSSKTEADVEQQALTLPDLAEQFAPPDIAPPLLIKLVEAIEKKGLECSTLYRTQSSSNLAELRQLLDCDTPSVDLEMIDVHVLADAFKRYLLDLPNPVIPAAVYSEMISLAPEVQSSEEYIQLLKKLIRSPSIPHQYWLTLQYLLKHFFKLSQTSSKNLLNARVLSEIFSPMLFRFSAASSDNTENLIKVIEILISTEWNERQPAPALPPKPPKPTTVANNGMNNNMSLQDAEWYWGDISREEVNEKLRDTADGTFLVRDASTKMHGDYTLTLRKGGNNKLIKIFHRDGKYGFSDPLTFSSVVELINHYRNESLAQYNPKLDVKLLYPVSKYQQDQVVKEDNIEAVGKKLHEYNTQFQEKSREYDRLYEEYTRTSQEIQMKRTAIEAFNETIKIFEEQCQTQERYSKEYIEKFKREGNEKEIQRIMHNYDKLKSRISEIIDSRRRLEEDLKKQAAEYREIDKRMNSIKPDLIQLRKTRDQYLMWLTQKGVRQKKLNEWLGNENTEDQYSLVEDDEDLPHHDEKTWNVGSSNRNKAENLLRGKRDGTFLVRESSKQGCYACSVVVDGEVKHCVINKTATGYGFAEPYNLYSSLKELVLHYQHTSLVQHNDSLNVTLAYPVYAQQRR
Chain of p110δ/p85 (O00329 whole entry, species assumed): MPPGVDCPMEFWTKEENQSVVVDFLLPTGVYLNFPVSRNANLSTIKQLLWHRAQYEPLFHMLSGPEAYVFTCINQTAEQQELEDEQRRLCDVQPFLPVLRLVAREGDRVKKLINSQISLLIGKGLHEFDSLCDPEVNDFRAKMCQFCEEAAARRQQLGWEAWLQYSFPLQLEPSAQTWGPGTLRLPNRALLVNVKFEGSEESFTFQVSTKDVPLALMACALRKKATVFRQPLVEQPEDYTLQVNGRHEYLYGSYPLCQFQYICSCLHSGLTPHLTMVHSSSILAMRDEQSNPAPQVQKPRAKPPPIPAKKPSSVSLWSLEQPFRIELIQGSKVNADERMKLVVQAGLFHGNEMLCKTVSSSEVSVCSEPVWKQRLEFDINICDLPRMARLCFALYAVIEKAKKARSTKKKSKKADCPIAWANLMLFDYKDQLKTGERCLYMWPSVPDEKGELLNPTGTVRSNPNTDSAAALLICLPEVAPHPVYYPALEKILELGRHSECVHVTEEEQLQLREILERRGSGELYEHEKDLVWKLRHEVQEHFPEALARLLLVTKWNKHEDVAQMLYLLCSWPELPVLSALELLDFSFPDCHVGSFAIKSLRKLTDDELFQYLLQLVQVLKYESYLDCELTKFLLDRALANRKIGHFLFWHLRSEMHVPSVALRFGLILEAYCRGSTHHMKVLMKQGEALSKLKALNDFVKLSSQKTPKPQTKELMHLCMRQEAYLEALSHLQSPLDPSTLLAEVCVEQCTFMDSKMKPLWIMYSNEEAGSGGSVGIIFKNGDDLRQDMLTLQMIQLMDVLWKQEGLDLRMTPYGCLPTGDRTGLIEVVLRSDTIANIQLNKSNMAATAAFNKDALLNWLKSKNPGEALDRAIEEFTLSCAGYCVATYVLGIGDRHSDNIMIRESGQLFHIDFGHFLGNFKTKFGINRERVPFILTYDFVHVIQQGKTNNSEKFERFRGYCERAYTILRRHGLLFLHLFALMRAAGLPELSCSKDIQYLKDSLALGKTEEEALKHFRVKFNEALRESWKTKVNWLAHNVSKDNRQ
Chain of p110δ/p85 (P27986 whole entry partner, species assumed): as the sequence (P27986 whole entry partner, species assumed) above
Chain of p110β/p85 (P42338 whole entry, species assumed): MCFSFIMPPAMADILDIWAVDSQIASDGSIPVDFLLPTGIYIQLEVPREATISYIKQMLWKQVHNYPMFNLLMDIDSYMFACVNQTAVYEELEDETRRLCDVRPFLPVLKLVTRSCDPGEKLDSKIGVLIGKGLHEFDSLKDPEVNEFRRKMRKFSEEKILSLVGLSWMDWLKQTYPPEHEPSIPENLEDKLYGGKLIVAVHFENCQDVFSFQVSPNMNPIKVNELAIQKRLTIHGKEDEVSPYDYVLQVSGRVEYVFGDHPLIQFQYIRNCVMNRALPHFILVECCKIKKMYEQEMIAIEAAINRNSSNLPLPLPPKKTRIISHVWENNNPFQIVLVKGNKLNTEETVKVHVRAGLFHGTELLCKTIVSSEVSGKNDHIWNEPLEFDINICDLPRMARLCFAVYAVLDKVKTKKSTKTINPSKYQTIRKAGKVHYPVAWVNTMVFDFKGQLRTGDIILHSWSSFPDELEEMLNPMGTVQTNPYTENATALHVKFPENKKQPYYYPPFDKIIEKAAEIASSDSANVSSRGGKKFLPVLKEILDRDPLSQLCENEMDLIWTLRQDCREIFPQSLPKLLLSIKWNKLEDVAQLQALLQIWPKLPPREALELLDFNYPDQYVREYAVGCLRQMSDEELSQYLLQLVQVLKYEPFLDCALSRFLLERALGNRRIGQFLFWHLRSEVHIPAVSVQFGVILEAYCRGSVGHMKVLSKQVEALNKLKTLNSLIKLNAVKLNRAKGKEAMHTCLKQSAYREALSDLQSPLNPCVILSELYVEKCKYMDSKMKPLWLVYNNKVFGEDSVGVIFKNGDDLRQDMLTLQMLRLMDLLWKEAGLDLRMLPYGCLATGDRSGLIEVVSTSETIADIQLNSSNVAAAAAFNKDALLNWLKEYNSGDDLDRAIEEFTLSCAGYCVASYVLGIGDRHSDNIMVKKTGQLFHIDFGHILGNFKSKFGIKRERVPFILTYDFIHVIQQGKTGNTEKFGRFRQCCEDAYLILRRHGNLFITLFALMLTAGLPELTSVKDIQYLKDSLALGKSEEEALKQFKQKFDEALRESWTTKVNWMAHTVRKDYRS
Chain of p110β/p85 (P27986 whole entry partner, species assumed): as the sequence (P27986 whole entry partner, species assumed) above

What is called IC50 is the concentration at which inhibition is half-maximal. On to `Cc1ccc([N+](=O)[O-])cc1S(=O)(=O)N(C)N=Cc1cnn2ccccc12` [E1, N,2-Dimethyl-5-nitro-N′-(pyrazolo[1,5-a]pyridin-3-ylmethylene)benzene-sulfonohydrazide], for which the 50% inhibitory concentration (IC50) amounted to 0.66 µM in the assay on NZOV9, 3400 nM on p110δ/p85, 190 nM on p110α/p85 (setting [1]) and 0.47 µM with NZB5.

In the case of `Cc1ccn2ncc(C=NN(C)S(=O)(=O)c3cc([N+](=O)[O-])ccc3C)c2c1` [E2, N,2-Dimethyl-N′-((5-methylpyrazolo[1,5-a]pyridin-3-yl)methylene)-5-nitro-benzenesulfonohydrazide], the IC50 was 0.07 µM in the assay on NZOV9; 640 nM at p110δ/p85; over 1000 nM at p110β/p85; 110 nM at p110α/p85 (setting [1]); 0.05 µM in the assay on NZB5.

Consider `Cc1ccn2nc(C)c(C=NN(C)S(=O)(=O)c3cc([N+](=O)[O-])ccc3C)c2c1` [E4, N′-((2,5-Dimethylpyrazolo[1,5-a]pyridin-3-yl)methylene)-N,2-dimethyl-5-nitrobenzenesulfonohydrazide], for which the IC50 was 20 µM with NZOV9; over 1000 nM at p110δ/p85; over 1000 nM at p110β/p85; 870 nM on p110α/p85 (setting [1]); 15 µM with NZB5.

`COC(=O)c1ccn2ncc(C=NN(C)S(=O)(=O)c3cc([N+](=O)[O-])ccc3C)c2c1` [E6, Methyl 3-((2-methyl-2-(2-methyl-5-nitrophenylsulfonyl)hydrazono)methyl)pyrazolo[1,5-a]pyridine-5-carboxylate]: the IC50 in the assay on NZOV9 is 1.5 µM; on p110δ/p85, 790 nM; at p110β/p85, over 1000 nM; on p110α/p85 (setting [1]), 260 nM; with NZB5, 1.8 µM.

`COc1ccn2ncc(C=NN(C)S(=O)(=O)c3cc([N+](=O)[O-])ccc3C)c2c1` [E9, N′-((5-Methoxypyrazolo[1,5-a]pyridin-3-yl)methylene)-N,2-dimethyl-5-nitrobenzenesulfonohydrazide]: the 50% inhibitory concentration (IC50) with NZOV9 was 0.52 µM; on p110δ/p85 it was over 1000 nM; on p110β/p85, over 1000 nM; at p110α/p85 (setting [1]) it was 230 nM; with NZB5, 0.94 µM.

For the molecule `Cc1ccc([N+](=O)[O-])cc1S(=O)(=O)N(C)N=Cc1cnn2ccc(I)cc12` [E15, N′-((5-Iodopyrazolo[1,5-a]pyridin-3-yl)methylene)-N,2-dimethyl-5-nitro-benzenesulfonohydrazide], the 50% inhibitory concentration (IC50) worked out at 0.05 µM in the assay with NZOV9; 240 nM at p110δ/p85; 720 nM on p110β/p85; 23 nM on p110α/p85; 0.04 µM in the assay on NZB5.

Consider `Cc1ccc([N+](=O)[O-])cc1S(=O)(=O)N(C)N=Cc1cnn2ccc(C3CC3)cc12` [E17, N′-((5-cyclopropylpyrazolo[1,5-a]pyridin-3-yl)methylene)-N,2-dimethyl-5-nitrobenzenesulfonohydrazide], for which the IC50 in the assay on NZOV9 was 0.67 µM; at p110δ/p85, over 1000 nM; on p110β/p85 it was over 1000 nM; on p110α/p85 (setting [1]), 330 nM; in the assay on NZB5, 0.74 µM.

Turning to `C#Cc1ccn2ncc(C=NN(C)S(=O)(=O)c3cc([N+](=O)[O-])ccc3C)c2c1` [E18, N′-((5-Ethynylpyrazolo[1,5-a]pyridin-3-yl)methylene)-N,2-dimethyl-5-nitrobenzenesulfonohydrazide], the IC50 turned out to be 0.11 µM in the assay on NZOV9; 43 nM at p110δ/p85; 47 nM at p110β/p85; 1.4 nM at p110α/p85 (setting [1]); 0.16 µM with NZB5.

Regarding `Cc1ccc(F)cc1S(=O)(=O)N(C)N=Cc1cnn2ccc(C#N)cc12` [E27, N′-((5-Cyanopyrazolo[1,5-a]pyridin-3-yl)methylene)-5-fluoro-N,2-dimethylbenzenesulfonohydrazide], the half-maximal inhibitory concentration (IC50) in the assay on NZOV9 was 14 µM; at p110δ/p85 it was 340 nM; on p110β/p85, 870 nM; at p110α/p85 (setting [1]), 86 nM; with NZB5, over 20 µM.

As for `CC(C)c1ccc([N+](=O)[O-])cc1S(=O)(=O)N(C)N=Cc1cnn2ccc(C#N)cc12` [E33, N′-((5-Cyanopyrazolo[1,5-a]pyridin-3-yl)methylene)-2-isopropyl-N-methyl-5-nitrobenzenesulfonohydrazide], the IC50 with NZOV9 was 0.26 µM; at p110δ/p85, 40 nM; at p110β/p85, 300 nM; on p110α/p85 (setting [1]), 1.8 nM; in the assay with NZB5, 0.19 µM.

Consider `CN(N=Cc1cnn2ccc(C#N)cc12)S(=O)(=O)c1cc([N+](=O)[O-])ccc1Cl` [E34, 2-Chloro-N′-((5-cyanopyrazolo[1,5-a]pyridin-3-yl)methylene)-N-methyl-5-nitrobenzenesulfonohydrazide], for which the half-inhibitory concentration (IC50) in the assay on NZOV9 was determined as 0.35 µM; in the assay with NZB5, 0.88 µM.

Take `Cc1ccc(C#N)cc1S(=O)(=O)N(CCO)N=Cc1cnn2ccc(C#N)cc12` [E40, 5-Cyano-N′-((5-cyanopyrazolo[1,5-a]pyridin-3-yl)methylene)-N-(2-hydroxyethyl)-2-methylbenzenesulfonohydrazide]: the half-maximal inhibitory concentration (IC50) with NZOV9 came out at 0.62 µM; at p110δ/p85 it was 25 nM; on p110β/p85, 23 nM; on p110α/p85 (setting [1]), 3 nM; in the assay on NZB5, 3.2 µM.

For `Cc1ccc([N+](=O)[O-])cc1S(=O)(=O)NN=Cc1cnn2ccc(C#N)cc12` [E42, N′-((5-Cyanopyrazolo[1,5-a]pyridin-3-yl)methylene)-2-methyl-5-nitro-benzenesulfonohydrazide], the concentration for half-maximal inhibition (IC50) in the assay on NZOV9 was 4.9 µM; on p110δ/p85, 580 nM; on p110β/p85, 620 nM; on p110α/p85 (setting [1]) it was 13 nM; in the assay on NZB5 it was 2.5 µM.

As for `Cc1ccc([N+](=O)[O-])cc1S(=O)(=O)N(CCN(C)C)N=Cc1cnn2ccc(C#N)cc12` [E46, N′-((5-Cyanopyrazolo[1,5-a]pyridin-3-yl)methylene)-N-(2-(dimethylamino)ethyl)-2-methyl-5-nitrobenzenesulfonohydrazide], the IC50 in the assay with NZOV9 was 0.4 µM; on p110δ/p85, 130 nM; on p110β/p85 it was 200 nM; at p110α/p85 (setting [1]), 30 nM; in the assay on NZB5 it was 0.37 µM.

As to `Cc1ccc([N+](=O)[O-])cc1S(=O)(=O)N(CCN1CCOCC1)N=Cc1cnn2ccc(C#N)cc12` [E47, N′-((5-Cyanopyrazolo[1,5-a]pyridin-3-yl)methylene)-2-methyl-N-(2-morpholinoethyl)-5-nitrobenzenesulfonohydrazide], the IC50 stood at 0.55 µM in the assay on NZOV9; 10 nM at p110δ/p85; 230 nM on p110β/p85; 4.5 nM on p110α/p85 (setting [1]); 0.51 µM in the assay on NZB5.

For `CN(N=Cc1cnn2ccc(C#N)cc12)S(=O)(=O)c1cc([N+](=O)[O-])ccc1NCCN1CCOCC1` [E58, N′-((5-Cyanopyrazolo[1,5-a]pyridin-3-yl)methylene)-N-methyl-2-(2-morpholinoethylamino)-5-nitrobenzenesulfonohydrazide hydrochloride], the IC50 in the assay on NZOV9 was over 20 µM; at p110δ/p85 it was 26 nM; at p110β/p85 it was over 1000 nM; at p110α/p85 (setting [1]), 9 nM; in the assay with NZB5, 9.4 µM.

For the molecule `CN(N=Cc1cnn2ccc(C#N)cc12)S(=O)(=O)c1cc([N+](=O)[O-])ccc1NCCc1c[nH]cn1` [E63, 2-(2-(1H-Imidazol-4-yl)-ethylamino)-N′-((5-cyanopyrazolo[1,5-a]pyridin-3-yl)methylene)-N-methyl-5-nitrobenzenesulfonohydrazide hydrochloride], the IC50 with NZOV9 is 0.61 µM; at p110δ/p85 it was 320 nM; on p110β/p85, over 1000 nM; at p110α/p85 (setting [1]) it was 55 nM; in the assay on NZB5, 0.82 µM.

On to `CN(N=Cc1cnn2ccc(C#N)cc12)S(=O)(=O)c1cc([N+](=O)[O-])ccc1NCc1cccnc1` [E65, N′-((5-Cyanopyrazolo[1,5-a]pyridin-3-yl)methylene)-N-methyl-5-nitro-2-(pyridin-3-ylmethylamino)benzenesulfonohydrazide hydrochloride], for which the IC50 worked out at 0.68 µM with NZOV9; 440 nM at p110δ/p85; 580 nM at p110β/p85; 9.6 nM at p110α/p85 (setting [1]); 1.1 µM in the assay on NZB5.

On to `CN(N=Cc1cnn2ccc(C#N)cc12)S(=O)(=O)c1cc([N+](=O)[O-])ccc1OCc1ccccn1` [E71, N′-((5-Cyanopyrazolo[1,5-a]pyridin-3-yl)methylene)-N-methyl-5-nitro-2-(pyridin-2-ylmethoxy)benzenesulfonohydrazide hydrochloride], for which the IC50 was found to be 0.66 µM with NZOV9; 200 nM at p110δ/p85; 5600 nM on p110β/p85; 5.8 nM on p110α/p85; 1.3 µM in the assay on NZB5.
